According to US12297194B2, “N2-phenylpyrimidine-2,4-diamine compounds, and preparation methods and methods of use thereof” (BRIDGE BIOTHERAPEUTICS, INC., priority 2021, dated 2025):

Columns and labels:
Assay type in all cases: cell-based, murine
[1] = biological target: Ba/F3 EGFR L858R/T790M/C797S mutants (Homo sapiens, UniProt P00533, T790M/C797S/L858R, cells depend on it); experiment: CellTiter-Glo cell viability, Ba/F3 EGFR L858R/T790M/C797S cells; conditions: 72 hours, read-out: Ba/F3 EGFR mutant cell (IC50, nM) L/T/C
Protocol: (§1) In order to evaluate an inhibitory ability on wild-type Ba/F3 EGFR and Ba/F3 EGFR mutations in Ba/F3 cell lines by the compounds of Formula 1, the experiment was carried out as described below.
(§2) The measurement of activities on Ba/F3 cells harboring wild-type EGFR and EGFR mutants by the compounds of the present invention were determined utilizing the CELLTITER-GLO™ system from Promega, as follows. The CELLTITER-GLO™ assay is a method for measuring the ATP present in cells to determine the cell viability. Ba/F3 EGFR wild-type and Ba/F3 EGFR L858R/C797S (L/C), Ba/F3 EGFR L858R/T790M/C797S (L/T/C), Ba/F3 EGFR Del19/T790M (D/T), Ba/F3 EGFR Del19/C797S (D/C), Ba/F3 EGFR Del19/T790M/C797S (D/T/C) mutant cell lines were maintained in RPMI1640, containing […], 1% penicillin-streptomycin, […] puromycin. Cells were grown in a humidified incubator at 37° C. with […].
(§3) The analysis of an EGFR inhibitory activity by the compounds was carried out in accordance with the analysis reaction recipe below.
(§4) 2500 cells/90 μL were seeded in 96 well cell culture plate, and after 24 hours, treated with the compounds represented by Formula 1 in concentrations of 0, 0.3, 0.9, 2.7, 8.2, 24.7, 74.1, 222.2, 666.7, 2000 (nM). After the reaction of 72 hours, the plate was incubated for 30 minutes at ambient temperature, and then, was further treated with 100 μL of the CELLTITER-GLO™ reagent and was shaken for 10 minutes at ambient temperature. Finally, measurement of the luminescence values were obtained using the SPECTRAMAX™ iD3 (Molecular Devices), and the IC50 values of the compound were analyzed using the GraphPad Prism program (version 9.0.2, GraphPad Software, Inc.).

[2] = biological target: Ba/F3 EGFR Del19/C797S mutants (Homo sapiens, UniProt P00533, C797S, cells depend on it, form not given); experiment: CellTiter-Glo cell viability, Ba/F3 EGFR Del19/C797S cells; conditions: 72 hours, read-out: Ba/F3 EGFR mutant cell (IC50, nM) D/C
Sequence of Ba/F3 EGFR Del19/C797S mutants (P00533 with tags, fused parts or gaps DEL746-750/C797S, form open): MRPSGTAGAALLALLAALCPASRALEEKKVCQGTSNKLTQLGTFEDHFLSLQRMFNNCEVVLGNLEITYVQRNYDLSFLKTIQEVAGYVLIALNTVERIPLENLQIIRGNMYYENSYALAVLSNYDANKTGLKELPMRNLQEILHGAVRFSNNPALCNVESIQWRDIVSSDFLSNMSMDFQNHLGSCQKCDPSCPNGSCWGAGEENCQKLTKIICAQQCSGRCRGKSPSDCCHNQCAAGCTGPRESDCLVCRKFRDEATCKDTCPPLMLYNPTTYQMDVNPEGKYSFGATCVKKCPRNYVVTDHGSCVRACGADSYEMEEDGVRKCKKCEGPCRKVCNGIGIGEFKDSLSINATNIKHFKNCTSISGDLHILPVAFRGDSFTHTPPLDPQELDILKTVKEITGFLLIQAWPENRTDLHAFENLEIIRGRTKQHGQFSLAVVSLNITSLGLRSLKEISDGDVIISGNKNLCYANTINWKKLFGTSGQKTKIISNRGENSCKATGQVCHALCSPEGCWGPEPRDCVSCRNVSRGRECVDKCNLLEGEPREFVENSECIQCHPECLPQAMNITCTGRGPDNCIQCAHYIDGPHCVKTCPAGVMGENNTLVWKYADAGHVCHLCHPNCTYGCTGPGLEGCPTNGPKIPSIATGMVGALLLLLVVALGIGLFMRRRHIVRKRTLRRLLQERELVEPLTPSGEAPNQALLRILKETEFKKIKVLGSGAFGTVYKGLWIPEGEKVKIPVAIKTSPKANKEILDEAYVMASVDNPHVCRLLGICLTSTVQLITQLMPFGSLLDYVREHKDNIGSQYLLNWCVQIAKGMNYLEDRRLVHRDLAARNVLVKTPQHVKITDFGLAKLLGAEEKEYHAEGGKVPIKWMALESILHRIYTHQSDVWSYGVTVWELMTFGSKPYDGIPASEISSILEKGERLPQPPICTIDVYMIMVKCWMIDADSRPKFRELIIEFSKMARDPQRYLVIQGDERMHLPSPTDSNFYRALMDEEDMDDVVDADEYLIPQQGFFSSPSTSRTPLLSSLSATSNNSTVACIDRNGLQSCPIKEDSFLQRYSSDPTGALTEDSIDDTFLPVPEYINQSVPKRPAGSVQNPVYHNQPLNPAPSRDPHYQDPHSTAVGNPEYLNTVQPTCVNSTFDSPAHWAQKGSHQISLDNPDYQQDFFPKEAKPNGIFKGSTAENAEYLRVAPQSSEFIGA
Protocol: as §1, §2, §3, §4

[3] = biological target: Ba/F3 EGFR Del19/T790M/C797S mutants (Homo sapiens, UniProt P00533, T790M/C797S, cells depend on it, form not given); experiment: CellTiter-Glo cell viability, Ba/F3 EGFR Del19/T790M/C797S cells; conditions: 72 hours, read-out: Ba/F3 EGFR mutant cell (IC50, nM) D/T/C
Sequence of Ba/F3 EGFR Del19/T790M/C797S mutants (P00533 with tags, fused parts or gaps DEL746-750/T790M/C797S, form open): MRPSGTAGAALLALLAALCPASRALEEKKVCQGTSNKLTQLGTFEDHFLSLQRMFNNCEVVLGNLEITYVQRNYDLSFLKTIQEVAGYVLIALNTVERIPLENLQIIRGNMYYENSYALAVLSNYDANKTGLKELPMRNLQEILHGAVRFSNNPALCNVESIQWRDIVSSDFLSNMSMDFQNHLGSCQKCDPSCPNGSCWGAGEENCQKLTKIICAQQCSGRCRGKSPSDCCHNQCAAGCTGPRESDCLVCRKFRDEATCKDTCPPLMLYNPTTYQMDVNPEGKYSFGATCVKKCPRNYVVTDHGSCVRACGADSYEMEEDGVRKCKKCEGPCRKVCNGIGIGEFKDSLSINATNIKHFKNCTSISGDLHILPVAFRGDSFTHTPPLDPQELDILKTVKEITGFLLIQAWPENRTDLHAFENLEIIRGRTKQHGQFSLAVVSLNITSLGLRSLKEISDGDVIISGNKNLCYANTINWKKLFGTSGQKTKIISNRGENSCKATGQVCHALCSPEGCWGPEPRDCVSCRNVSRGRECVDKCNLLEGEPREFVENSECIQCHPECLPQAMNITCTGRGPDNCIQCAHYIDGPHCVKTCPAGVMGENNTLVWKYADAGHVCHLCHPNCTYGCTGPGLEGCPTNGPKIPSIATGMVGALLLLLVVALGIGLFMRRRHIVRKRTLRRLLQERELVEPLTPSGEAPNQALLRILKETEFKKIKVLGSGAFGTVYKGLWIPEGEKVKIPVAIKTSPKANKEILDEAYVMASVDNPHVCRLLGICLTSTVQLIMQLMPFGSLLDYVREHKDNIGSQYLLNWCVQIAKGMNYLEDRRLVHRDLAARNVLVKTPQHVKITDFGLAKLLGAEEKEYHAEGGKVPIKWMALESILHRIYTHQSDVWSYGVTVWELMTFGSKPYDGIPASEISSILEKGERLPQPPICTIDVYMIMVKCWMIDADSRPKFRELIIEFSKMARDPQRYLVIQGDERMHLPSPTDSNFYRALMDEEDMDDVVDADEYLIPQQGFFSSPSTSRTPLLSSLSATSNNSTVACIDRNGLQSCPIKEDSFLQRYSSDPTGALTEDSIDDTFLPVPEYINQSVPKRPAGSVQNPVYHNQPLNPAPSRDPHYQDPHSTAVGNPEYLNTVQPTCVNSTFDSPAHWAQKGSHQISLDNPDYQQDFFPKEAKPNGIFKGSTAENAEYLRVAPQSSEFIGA
Protocol: as §1, §2, §3, §4

[4] = biological target: Ba/F3 EGFR Wild-type (Homo sapiens, UniProt P00533); experiment: CellTiter-Glo cell viability, Ba/F3 EGFR wild-type cells; conditions: 72 hours, read-out: Ba/F3 EGFR mutant cell (IC50, nM) WT
Sequence of Ba/F3 EGFR Wild-type (P00533 whole entry, change not shown): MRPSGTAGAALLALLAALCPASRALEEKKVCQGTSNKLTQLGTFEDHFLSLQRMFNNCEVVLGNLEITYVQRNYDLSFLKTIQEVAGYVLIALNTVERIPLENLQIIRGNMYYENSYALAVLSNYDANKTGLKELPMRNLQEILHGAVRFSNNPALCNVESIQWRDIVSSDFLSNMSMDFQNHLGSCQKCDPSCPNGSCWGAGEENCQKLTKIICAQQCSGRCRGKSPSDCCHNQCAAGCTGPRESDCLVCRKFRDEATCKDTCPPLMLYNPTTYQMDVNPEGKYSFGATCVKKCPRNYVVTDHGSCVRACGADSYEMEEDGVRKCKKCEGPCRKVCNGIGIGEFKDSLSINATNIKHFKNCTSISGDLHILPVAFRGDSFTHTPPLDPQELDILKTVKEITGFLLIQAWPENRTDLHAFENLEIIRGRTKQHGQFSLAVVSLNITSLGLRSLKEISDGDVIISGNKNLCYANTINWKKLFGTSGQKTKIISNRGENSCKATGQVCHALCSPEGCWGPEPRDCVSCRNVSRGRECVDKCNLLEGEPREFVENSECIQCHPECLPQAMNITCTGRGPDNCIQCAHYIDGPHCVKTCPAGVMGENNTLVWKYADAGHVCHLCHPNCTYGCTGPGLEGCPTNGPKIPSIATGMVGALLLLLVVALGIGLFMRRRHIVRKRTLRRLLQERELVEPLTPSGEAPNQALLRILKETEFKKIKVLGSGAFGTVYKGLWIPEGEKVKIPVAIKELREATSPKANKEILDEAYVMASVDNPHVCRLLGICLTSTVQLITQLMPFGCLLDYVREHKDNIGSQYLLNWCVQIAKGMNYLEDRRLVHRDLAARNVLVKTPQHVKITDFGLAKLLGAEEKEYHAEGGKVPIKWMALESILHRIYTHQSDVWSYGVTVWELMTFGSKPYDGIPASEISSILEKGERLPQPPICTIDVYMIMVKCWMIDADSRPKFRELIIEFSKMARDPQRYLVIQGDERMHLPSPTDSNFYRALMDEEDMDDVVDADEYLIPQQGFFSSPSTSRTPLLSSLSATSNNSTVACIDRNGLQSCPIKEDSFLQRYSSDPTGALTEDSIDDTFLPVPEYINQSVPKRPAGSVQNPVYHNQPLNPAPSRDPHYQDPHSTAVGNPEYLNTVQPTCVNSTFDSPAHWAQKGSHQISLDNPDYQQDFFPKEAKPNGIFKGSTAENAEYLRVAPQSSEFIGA
Protocol: as §1, §2, §3, §4

[5] = biological target: Ba/F3 EGFR L858R/C797S mutants (Homo sapiens, UniProt P00533, C797S/L858R, cells depend on it); experiment: CellTiter-Glo cell viability, Ba/F3 EGFR L858R/C797S cells; conditions: 72 hours, read-out: Ba/F3 EGFR mutant cell (IC50, nM) L/C
Sequence of Ba/F3 EGFR L858R/C797S mutants (P00533 whole entry C797S/L858R): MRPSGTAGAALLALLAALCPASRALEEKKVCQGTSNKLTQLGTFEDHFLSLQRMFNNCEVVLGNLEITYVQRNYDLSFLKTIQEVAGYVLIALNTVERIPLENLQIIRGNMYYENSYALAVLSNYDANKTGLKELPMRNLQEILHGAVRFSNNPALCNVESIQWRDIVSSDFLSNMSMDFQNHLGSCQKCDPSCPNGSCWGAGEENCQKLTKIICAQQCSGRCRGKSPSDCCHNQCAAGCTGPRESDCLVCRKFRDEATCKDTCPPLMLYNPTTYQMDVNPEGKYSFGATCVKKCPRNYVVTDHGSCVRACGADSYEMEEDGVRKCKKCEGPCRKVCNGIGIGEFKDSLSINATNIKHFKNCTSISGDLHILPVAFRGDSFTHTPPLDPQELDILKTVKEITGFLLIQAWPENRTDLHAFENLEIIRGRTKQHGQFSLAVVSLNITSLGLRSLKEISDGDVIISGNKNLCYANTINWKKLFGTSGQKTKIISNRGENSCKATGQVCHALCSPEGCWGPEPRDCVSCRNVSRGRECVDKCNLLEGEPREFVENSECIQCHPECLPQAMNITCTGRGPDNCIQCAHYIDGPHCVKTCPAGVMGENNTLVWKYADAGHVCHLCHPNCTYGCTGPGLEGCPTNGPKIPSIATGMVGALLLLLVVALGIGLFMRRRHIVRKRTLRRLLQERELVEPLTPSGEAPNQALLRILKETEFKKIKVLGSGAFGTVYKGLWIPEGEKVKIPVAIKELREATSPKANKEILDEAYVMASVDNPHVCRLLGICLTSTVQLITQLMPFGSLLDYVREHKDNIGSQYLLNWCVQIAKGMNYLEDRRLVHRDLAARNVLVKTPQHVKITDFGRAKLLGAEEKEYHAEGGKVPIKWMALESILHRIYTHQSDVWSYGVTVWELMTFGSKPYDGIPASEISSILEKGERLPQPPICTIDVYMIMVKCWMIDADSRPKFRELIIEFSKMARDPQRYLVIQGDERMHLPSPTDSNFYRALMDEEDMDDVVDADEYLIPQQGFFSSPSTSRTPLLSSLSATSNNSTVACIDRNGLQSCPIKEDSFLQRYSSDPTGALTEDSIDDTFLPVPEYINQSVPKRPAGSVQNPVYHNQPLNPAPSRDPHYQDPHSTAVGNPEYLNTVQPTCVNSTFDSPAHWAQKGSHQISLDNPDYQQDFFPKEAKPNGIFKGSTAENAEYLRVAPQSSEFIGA
Protocol: as §1, §2, §3, §4

| Compound | GI50 [1] [nM] | GI50 [2] [nM] | GI50 [3] [nM] | GI50 [4] [nM] | GI50 [5] [nM] |
| --- | --- | --- | --- | --- | --- |
| COc1cc(N2CCC(N3CCN(C)CC3)CC2)c(C)cc1Nc1ncc(Cl)c(Nc2ccc3nccnc3c2NS(=O)(=O)C2CC2)n1 [Example A26, N-(6-((5-chloro-2-((2-methoxy-5-methyl-4-(4-(4-methylpiperazin-1-yl)piperidin-1-yl)phenyl)amino)pyrimidin-4-yl)amino)quinoxalin-5-yl)cyclopropanesulfonamide] | 107 | 72 | 79 | 1280 | 163 |
| COc1cc(N2CCOCC2)c(C)cc1Nc1ncc(Br)c(Nc2ccc3nccnc3c2NS(C)(=O)=O)n1 [Example B10, N-(6-((5-bromo-2-((2-methoxy-5-methyl-4-morpholinophenyl)amino)pyrimidin-4-yl)amino)quinoxalin-5-yl)methanesulfonamide] | 584 | 537 | 252 | 858 | 678 |
| COc1cc(C2CCNCC2)ccc1Nc1ncc(F)c(Nc2ccc3nccnc3c2NS(C)(=O)=O)n1 [Example B17, N-(6-((5-fluoro-2-((2-methoxy-4-(piperidin-4-yl)phenyl)amino)pyrimidin-4-yl)amino)quinoxalin-5-yl)methanesulfonamide] | > 2000 | 1250 | > 2000 | > 2000 | > 2000 |
| COc1cc(N2CCC(N(C)C)CC2)c(C)cc1Nc1ncc(Cl)c(Nc2ccc3nccnc3c2NS(C)(=O)=O)n1 [Example B4, N-(6-((5-chloro-2-((4-(4-(dimethylamino)piperidin-1-yl)-2-methoxy-5-methylphenyl)amino)pyrimidin-4-yl)amino)quinoxalin-5-yl)methanesulfonamide] | 9 | 9 | 4 | 10 | 14 |
| CCc1cc(Nc2ncc(F)c(Nc3ccc4nccnc4c3NS(C)(=O)=O)n2)c(OC)cc1N1CCC(N2CCN(C)CC2)CC1 [Example A9, N-(6-((2-((5-ethyl-2-methoxy-4-(4-(4-methylpiperazin-1-yl)piperidin-1-yl)phenyl)amino)-5-fluoropyrimidin-4-yl)amino)quinoxalin-5-yl)methanesulfonamide] | 80 | 15 | 62 | 524 | 106 |
| COc1cc(N2CCC(N3CCN(C)CC3)CC2)c(C2CC2)cc1Nc1ncc(Cl)c(Nc2ccc3nccnc3c2NS(C)(=O)=O)n1 [Example A5, N-(6-((5-chloro-2-((5-cyclopropyl-2-methoxy-4-(4-(4-methylpiperazin-1-yl)piperidin-1-yl)phenyl)amino)pyrimidin-4-yl)amino)quinoxalin-5-yl)methanesulfonamide] | 69 | 76 | 23 | 938 | 244 |
| CCc1cc(Nc2ncc(Cl)c(Nc3ccc4nccnc4c3NS(C)(=O)=O)n2)c(OC)cc1N1CCC(N(C)C)CC1 [Example B5, N-(6-((5-chloro-2-((4-(4-(dimethylamino)piperidin-1-yl)-5-ethyl-2-methoxyphenyl)amino)pyrimidin-4-yl)amino)quinoxalin-5-yl)methanesulfonamide] | 36 | 30 | 14 | 1860 | 223 |
| COc1cc(N2CCC(N3CCN(C)CC3)CC2)c(C)cc1Nc1ncc(F)c(Nc2ccc3nccnc3c2NS(C)(=O)=O)n1 [Example A22, N-(6-((5-fluoro-2-((2-methoxy-5-methyl-4-(4-(4-methylpiperazin-1-yl)piperidin-1-yl)phenyl)amino)pyrimidin-4-yl)amino)quinoxalin-5-yl)methanesulfonamide] | 369 | 73 | 189 | 521 | 189 |
| CCc1cc(Nc2ncc(Br)c(Nc3ccc4nccnc4c3NS(C)(=O)=O)n2)c(OC)cc1N1CCC(N2CCN(C)CC2)CC1 [Example A8, N-(6-((5-bromo-2-((5-ethyl-2-methoxy-4-(4-(4-methylpiperazin-1-yl)piperidin-1-yl)phenyl)amino)pyrimidin-4-yl)amino)quinoxalin-5-yl)methanesulfonamide] | 18 | 38 | 6 | 919 | 147 |
| CCc1cc(Nc2ncc(Br)c(Nc3ccc4nccnc4c3NS(C)(=O)=O)n2)c(OC)cc1N1CCC(N(C)C)CC1 [Example B2, N-(6-((5-bromo-2-((4-(4-(dimethylamino)piperidin-1-yl)-5-ethyl-2-methoxyphenyl)amino)pyrimidin-4-yl)amino)quinoxalin-5-yl)methanesulfonamide] | 13 | 28 | 7 | 2100 | 195 |
| CC(C)Oc1cc(C2CCNCC2)ccc1Nc1ncc(Cl)c(Nc2ccc3nccnc3c2NS(C)(=O)=O)n1 [Example B22, N-(6-((5-chloro-2-((2-isopropoxy-4-(piperidin-4-yl)phenyl)amino)pyrimidin-4-yl)amino)103quinoxaline-5-yl)methanesulfonamide] | > 2000 |  | > 2000 | > 2000 | > 2000 |
| CNc1cc(N2CCC(N3CCN(C)CC3)CC2)c(C)cc1Nc1ncc(Cl)c(Nc2ccc3nccnc3c2NS(C)(=O)=O)n1 [Example A13, N-(6-((5-chloro-2-((5-methyl-2-(methylamino)-4-(4-(4-methylpiperazin-1-yl)piperidin-1-yl)phenyl)amino)pyrimidin-4-yl)amino)quinoxalin-5-yl)methanesulfonamide] | 338 | 265 | 109 | > 2000 | 646 |
| COc1cc(N2CCC(N3CCN(C)CC3)CC2)c(C(F)(F)F)cc1Nc1ncc(Cl)c(Nc2ccc3nccnc3c2NS(C)(=O)=O)n1 [Example A7, N-(6-((5-chloro-2-((2-methoxy-4-(4-(4-methylpiperazin-1-yl)piperidin-1-yl)-5-(trifluoromethyl)phenyl)amino)pyrimidin-4-yl)amino)quinoxalin-5-yl)methanesulfonamide] | 169 | 96 | 36 | 602 | 246 |
| COc1cc(N2CCC(N(C)C)CC2)ccc1Nc1ncc(Br)c(Nc2ccc3nccnc3c2NS(C)(=O)=O)n1 [Example B3, N-(6-((5-bromo-2-((4-(4-(dimethylamino)piperidin-1-yl)-2-methoxyphenyl)amino)pyrimidin-4-yl)amino)quinoxalin-5-yl)methanesulfonamide] | 86 | 147 | 30 | 725 | 325 |
| COc1cc(N2CCC(N3CCN(C)CC3)CC2)ccc1Nc1ncc(Cl)c(Nc2ccc3nccnc3c2NS(C)(=O)=O)n1 [Example A3, N-(6-((5-chloro-2-((2-methoxy-4-(4-(4-methylpiperazin-1-yl)piperidin-1-yl)phenyl)amino)pyrimidin-4-yl)amino)quinoxalin-5-yl)methanesulfonamide] | 97.6 |  | 48 |  |  |
| COc1cc(N2CCC(N(C)C)CC2)c(C)cc1Nc1ncc(C(F)(F)F)c(Nc2ccc3nccnc3c2NS(C)(=O)=O)n1 [Example B9, N-(6-((2-((4-(4-(dimethylamino)piperidin-1-yl)-2-methoxy-5-methylphenyl)amino)-5-(trifluoromethyl)pyrimidin-4-yl)amino)quinoxalin-5-yl) methane sulfonamide] | > 2000 | > 2000 | > 2000 | > 2000 | > 2000 |
| COc1cc(N2CCC(N3CCN(C)CC3)CC2)c(C)cc1Nc1ncc(C(F)(F)F)c(Nc2ccc3nccnc3c2NS(C)(=O)=O)n1 [Example A20, N-(6-((2-((2-methoxy-5-methyl-4-(4-(4-methylpiperazin-1-yl)piperidin-1-yl)phenyl)amino)-5-(trifluoromethyl)pyrimidin-4-yl)amino)quinoxalin-5-yl)methane sulfonamide] | > 2000 | > 2000 | 1590 | > 2000 | > 2000 |
